Source: article PMC8213057, “Targeting ALK2: An Open Science Approach to Developing Therapeutics for the Treatment of Diffuse Intrinsic Pontine Glioma” (Journal of Medicinal Chemistry, 2020)

Columns and labels:
[1] = target: GSK3a (Homo sapiens, UniProt P49840); experiment: biochemical; conditions: read-out: % enzyme activity, 1 μM; Run 1, Run 2
[2] = target: STK33 (Homo sapiens, UniProt Q9BYT3); experiment: biochemical; conditions: read-out: % enzyme activity, 1 μM; Run 1, Run 2
[3] = target: CDK8/cyclin C (Homo sapiens, UniProt P49336); conditions: 1 μM; Run 1, Run 2
Sequence of CDK8/cyclin C (P49336 whole entry): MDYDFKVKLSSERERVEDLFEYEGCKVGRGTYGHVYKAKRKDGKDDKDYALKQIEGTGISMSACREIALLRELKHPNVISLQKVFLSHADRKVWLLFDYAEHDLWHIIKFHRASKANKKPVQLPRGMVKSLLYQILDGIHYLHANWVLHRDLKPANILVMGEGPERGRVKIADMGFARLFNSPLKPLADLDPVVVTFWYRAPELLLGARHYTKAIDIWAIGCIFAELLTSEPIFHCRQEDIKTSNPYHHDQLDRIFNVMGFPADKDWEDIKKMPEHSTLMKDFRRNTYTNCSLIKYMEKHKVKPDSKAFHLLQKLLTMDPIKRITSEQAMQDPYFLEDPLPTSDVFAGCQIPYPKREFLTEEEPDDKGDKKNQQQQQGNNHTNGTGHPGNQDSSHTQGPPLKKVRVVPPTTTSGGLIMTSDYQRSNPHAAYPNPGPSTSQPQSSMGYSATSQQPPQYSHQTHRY
Sequence of CDK8/cyclin C (P24863 whole entry partner): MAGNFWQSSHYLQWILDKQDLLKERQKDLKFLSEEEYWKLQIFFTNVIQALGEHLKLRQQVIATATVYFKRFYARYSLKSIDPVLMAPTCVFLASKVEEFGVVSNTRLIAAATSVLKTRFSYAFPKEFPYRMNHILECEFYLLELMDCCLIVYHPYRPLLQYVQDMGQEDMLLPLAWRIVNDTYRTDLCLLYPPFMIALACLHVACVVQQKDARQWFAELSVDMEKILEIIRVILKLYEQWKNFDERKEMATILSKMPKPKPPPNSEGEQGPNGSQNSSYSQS

[4] = target: T1, FLT3 (Homo sapiens, UniProt P36888); experiment: 375-member kinase panel; assay type: biochemical; conditions: Run 1, Run 2; for % enzyme activity: 1 μM; for remaining activity at 1 µM: read-out: % enzyme activity, 1 μM
T1 construct: purchased Reaction Biology Corporation
T1 sequence (P36888 27-993): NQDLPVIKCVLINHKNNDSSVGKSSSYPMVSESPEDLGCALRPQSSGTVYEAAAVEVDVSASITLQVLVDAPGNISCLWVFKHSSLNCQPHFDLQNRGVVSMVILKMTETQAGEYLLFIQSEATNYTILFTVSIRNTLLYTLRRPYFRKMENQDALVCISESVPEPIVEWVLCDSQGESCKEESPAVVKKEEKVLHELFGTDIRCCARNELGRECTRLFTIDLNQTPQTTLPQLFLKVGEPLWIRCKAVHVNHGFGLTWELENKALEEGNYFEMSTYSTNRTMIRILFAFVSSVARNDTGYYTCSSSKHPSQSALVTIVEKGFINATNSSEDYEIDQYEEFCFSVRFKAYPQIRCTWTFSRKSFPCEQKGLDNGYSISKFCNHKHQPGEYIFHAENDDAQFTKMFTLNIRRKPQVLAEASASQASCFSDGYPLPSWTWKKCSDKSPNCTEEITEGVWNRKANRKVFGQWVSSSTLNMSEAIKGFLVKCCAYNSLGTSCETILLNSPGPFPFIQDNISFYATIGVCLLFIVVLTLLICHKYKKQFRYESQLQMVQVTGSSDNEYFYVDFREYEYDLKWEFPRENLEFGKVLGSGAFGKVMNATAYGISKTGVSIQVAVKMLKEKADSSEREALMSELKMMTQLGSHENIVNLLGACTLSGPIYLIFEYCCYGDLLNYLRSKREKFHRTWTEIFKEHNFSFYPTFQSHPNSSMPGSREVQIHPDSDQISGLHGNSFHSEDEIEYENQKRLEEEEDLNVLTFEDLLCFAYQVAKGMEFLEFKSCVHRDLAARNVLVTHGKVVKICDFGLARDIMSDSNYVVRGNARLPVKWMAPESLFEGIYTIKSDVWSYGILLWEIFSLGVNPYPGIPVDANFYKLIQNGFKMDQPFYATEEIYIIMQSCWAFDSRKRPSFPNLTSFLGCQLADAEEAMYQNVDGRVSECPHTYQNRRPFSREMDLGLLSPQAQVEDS

[5] = target: STK16 (Homo sapiens, UniProt O75716); conditions: 1 μM; Run 1, Run 2
Sequence of STK16 (O75716 whole entry): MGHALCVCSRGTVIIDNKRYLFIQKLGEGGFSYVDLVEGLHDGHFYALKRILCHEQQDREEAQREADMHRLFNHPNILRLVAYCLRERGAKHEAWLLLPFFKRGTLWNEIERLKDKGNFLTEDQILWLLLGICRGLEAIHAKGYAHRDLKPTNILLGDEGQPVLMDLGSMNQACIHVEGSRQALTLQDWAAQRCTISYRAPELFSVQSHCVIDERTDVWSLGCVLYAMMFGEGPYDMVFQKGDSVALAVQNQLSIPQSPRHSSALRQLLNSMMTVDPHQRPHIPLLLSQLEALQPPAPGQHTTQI

[6] = target: T2, SNARK/NUAK2 (Homo sapiens, UniProt Q9H093); experiment: biochemical; conditions: read-out: % enzyme activity, 1 μM; Run 1, Run 2
T2 sequence (Q9H093 1-628): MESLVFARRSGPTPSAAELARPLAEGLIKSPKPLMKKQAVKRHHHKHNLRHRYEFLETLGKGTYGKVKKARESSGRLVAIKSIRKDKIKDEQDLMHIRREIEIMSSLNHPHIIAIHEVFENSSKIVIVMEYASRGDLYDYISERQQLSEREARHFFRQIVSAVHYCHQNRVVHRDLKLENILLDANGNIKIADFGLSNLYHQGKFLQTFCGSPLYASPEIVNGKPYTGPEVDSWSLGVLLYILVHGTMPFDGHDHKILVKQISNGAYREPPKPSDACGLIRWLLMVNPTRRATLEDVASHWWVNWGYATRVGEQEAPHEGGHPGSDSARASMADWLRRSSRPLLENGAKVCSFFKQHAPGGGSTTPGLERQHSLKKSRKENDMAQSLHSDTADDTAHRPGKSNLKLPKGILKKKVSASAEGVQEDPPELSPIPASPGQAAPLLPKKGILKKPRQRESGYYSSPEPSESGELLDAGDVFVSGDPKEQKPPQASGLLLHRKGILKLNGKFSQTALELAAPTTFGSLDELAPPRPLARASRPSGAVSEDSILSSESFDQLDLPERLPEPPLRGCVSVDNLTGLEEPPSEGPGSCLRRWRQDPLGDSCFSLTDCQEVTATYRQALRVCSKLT

[7] = target: PAK2 (Homo sapiens, UniProt Q13177); experiment: biochemical; conditions: read-out: % enzyme activity, 1 μM; Run 1, Run 2
Sequence of PAK2 (Q13177 whole entry): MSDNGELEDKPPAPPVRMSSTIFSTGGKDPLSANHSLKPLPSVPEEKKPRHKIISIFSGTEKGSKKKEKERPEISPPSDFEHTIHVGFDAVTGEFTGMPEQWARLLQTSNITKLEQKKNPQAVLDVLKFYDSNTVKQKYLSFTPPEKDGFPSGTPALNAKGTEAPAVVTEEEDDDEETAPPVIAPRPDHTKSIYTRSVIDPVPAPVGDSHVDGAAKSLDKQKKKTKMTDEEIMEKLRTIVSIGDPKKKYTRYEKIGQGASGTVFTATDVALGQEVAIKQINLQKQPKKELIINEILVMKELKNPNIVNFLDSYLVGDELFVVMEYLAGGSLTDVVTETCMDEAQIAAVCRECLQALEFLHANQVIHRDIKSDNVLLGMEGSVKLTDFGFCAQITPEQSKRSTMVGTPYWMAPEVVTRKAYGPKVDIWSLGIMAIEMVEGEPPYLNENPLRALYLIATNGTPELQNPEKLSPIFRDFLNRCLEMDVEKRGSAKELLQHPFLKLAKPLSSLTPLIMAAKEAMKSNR

[8] = target: T3, MST2/STK3 (Homo sapiens, UniProt Q13188); experiment: biochemical; conditions: read-out: % enzyme activity, 1 μM; Run 1, Run 2
T3 sequence (Q13188 1-491): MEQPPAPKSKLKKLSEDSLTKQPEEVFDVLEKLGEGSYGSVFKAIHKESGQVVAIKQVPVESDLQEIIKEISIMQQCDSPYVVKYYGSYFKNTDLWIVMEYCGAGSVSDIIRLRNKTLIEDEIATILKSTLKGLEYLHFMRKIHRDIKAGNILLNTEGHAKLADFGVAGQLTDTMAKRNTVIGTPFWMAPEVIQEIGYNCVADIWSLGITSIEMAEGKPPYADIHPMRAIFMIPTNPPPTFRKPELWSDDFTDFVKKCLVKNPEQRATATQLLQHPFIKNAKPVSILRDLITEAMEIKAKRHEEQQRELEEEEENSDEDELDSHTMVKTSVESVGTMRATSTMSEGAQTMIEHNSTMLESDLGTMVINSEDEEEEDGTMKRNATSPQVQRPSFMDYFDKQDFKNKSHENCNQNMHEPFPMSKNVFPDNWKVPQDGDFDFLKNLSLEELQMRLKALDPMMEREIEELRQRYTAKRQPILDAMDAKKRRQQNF

[9] = target: CLK2 (Homo sapiens, UniProt P49760); experiment: biochemical; conditions: read-out: % enzyme activity, 1 μM; Run 1, Run 2
Sequence of CLK2 (P49760 whole entry): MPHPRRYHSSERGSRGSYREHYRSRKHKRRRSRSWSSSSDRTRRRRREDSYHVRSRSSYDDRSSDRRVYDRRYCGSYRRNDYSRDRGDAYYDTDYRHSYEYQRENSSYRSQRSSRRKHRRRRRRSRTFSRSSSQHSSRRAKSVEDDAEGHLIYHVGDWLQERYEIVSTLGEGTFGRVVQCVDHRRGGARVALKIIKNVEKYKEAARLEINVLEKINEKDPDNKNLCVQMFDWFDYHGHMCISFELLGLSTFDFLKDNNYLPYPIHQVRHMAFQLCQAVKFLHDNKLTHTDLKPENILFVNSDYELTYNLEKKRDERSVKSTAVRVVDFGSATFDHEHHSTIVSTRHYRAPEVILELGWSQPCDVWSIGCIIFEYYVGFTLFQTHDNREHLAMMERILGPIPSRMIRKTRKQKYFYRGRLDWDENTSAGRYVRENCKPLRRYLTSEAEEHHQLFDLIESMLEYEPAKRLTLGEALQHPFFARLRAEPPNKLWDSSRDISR

[10] = target: CDK2/cyclin O (Homo sapiens, UniProt P24941); conditions: 1 μM; Run 1, Run 2

Sequence of GSK3a (P49840 whole entry): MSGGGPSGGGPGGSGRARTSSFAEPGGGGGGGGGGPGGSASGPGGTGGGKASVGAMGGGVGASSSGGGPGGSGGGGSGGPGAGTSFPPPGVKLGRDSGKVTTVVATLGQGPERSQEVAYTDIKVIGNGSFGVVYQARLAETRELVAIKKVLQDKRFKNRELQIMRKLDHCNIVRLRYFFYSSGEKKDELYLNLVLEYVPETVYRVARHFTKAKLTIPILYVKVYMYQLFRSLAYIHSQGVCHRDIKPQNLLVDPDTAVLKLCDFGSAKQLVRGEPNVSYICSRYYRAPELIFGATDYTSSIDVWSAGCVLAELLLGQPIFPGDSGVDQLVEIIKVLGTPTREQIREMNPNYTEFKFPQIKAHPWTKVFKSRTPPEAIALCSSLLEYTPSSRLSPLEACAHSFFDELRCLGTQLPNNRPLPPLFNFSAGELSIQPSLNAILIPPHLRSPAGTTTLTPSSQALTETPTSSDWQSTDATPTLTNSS
Sequence of STK33 (Q9BYT3 whole entry): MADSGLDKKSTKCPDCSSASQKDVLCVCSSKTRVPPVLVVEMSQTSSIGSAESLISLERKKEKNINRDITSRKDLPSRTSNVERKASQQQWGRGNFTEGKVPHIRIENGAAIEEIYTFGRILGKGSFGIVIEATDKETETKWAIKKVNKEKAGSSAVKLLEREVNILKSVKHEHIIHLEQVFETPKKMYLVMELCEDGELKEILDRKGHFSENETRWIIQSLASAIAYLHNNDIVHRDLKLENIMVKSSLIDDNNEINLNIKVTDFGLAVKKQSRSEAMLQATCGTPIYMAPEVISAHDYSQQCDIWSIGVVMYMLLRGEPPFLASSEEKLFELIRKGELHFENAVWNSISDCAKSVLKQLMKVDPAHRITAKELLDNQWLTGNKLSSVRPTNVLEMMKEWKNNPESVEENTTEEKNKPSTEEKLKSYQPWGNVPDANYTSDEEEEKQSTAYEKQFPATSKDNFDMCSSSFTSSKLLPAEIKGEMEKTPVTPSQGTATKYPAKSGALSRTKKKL

SMILES | remaining activity at 1 µM [1] | remaining activity at 1 µM [2] | % enzyme activity [3] | % enzyme activity [4] | remaining activity at 1 µM [4] | % enzyme activity [5] | remaining activity at 1 µM [6] | remaining activity at 1 µM [7] | remaining activity at 1 µM [8] | remaining activity at 1 µM [9] | % enzyme activity [10]
COc1cc(-c2cncc(-c3ccc(N4CCN(C)CC4)cc3)c2C)cc(F)c1C(N)=O [Compound 26a, 2-Fluoro-6-methoxy-4-(4-methyl-5-(4-(4-methylpiperazin-1-yl)phenyl)pyridin-3-yl)benzamide] | 102% | 91% | 83.64% | 76.15% | 77.1% | 103.69% | 91.6% | 101% | 95.6% | 91.7% | 93.78%
COc1cc(-c2cncc(-c3ccc(N4C[C@@H](C)N(C)[C@@H](C)C4)cc3)c2C)cc(F)c1C(N)=O [Compound 26c, 2-Fluoro-6-methoxy-4-(4-methyl-5-(4-((3R,5S)-3,4,5-trimethylpiperazin-1-yl)phenyl)pyridin-3-yl)benzamide] | 102% | 97.4% | 92.05% | 81.48% | 84.3% | 99.45% | 94% | 104% | 102% | 90.3% | 88.53%
